Test [1] addresses T1, human adenosine A2A receptor (Homo sapiens, UniProt P29274).
T1 construct: expressed in transfected cells; host or cells: CHO cells, semliki forest virus expression system; washed membranes
Description: [3H]-SCH-58261 binding assay, human adenosine A2A receptor (CHO cell membranes, SPA). To be noted: recombinant human A2A receptor in CHO membranes, [3H]-SCH-58261 1 nM; read-out: hA2 (pKi) (converted). On the procedure: Human Adenosine A2A Receptor
(§1) The human adenosine A2A receptor was recombinantly expressed in Chinese hamster ovary (CHO) cells using the semliki forest virus expression system. Cells were harvested, washed twice by centrifugation, homogenized and again washed by centrifugation. The final washed membrane pellet was suspended in a Tris (50 mM) buffer containing 120 mM NaCl, 5 mM KCl, 2 mM CaCl2 and 10 mM MgCl2 (pH 7.4) (buffer A). The [^3H]-SCH-58261 (Dionisotti et al., 1997, Br J Pharmacol 121, 353; 1 nM) binding assay was carried out in 96-well plates in the presence of 2.5 μg of membrane protein, 0.5 mg of Ysi-poly-1-lysine SPA beads and 0.1 U adenosine deaminase in a final volume of 200 μl of buffer A. Non-specific binding was defined using xanthine amine congener (XAC; 2 μM). Compounds were tested at 10 concentrations from 10 μM-0.3 nM. All assays were conducted in duplicate and repeated at least two times. Assay plates were incubated for 1 hour at room temperature before centrifugation and then bound ligand determined using a Packard Topcount scintillation counter. IC50 values were calculated using a non-linear curve fitting program and Ki values calculated using the Cheng-Prussoff equation.

Test [2] has as its target T2, human adenosine A1 receptor (Homo sapiens, UniProt P30542).
T2 construct: expressed in transfected cells; host or cells: CHO cells, semliki forest virus expression system; washed membranes
T2 sequence (P30542 1-326): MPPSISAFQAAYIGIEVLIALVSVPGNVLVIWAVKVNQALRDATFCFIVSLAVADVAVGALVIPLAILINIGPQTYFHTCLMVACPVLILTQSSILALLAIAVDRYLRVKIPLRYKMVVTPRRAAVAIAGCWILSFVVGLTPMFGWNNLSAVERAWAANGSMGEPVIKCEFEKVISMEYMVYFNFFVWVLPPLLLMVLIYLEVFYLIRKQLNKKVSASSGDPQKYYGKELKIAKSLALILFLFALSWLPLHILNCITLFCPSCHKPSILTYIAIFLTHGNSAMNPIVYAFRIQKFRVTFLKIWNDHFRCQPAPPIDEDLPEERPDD
Description: [3H]-DPCPX binding assay, human adenosine A1 receptor (CHO cell membranes, SPA). Particulars: selectivity of hA2A versus hA1 binding. On the procedure: Human Adenosine A1 Receptor
as §1, with “A1” for “A2A”, “[^3H]-DPCPX (([propyl-^3H]8-cyclopentyl-1,3-dipropyxanthine); 0.6” for “[^3H]-SCH-58261 (Dionisotti et al., 1997, Br J Pharmacol 121, 353; 1”, “ligand was” for “ligand”

The source of these data is US6872833B2, “Adenosine receptor ligands” (Hoffmann-La Roche Inc., priority 2003, dated 2005).

T1 sequence (P29274 whole entry): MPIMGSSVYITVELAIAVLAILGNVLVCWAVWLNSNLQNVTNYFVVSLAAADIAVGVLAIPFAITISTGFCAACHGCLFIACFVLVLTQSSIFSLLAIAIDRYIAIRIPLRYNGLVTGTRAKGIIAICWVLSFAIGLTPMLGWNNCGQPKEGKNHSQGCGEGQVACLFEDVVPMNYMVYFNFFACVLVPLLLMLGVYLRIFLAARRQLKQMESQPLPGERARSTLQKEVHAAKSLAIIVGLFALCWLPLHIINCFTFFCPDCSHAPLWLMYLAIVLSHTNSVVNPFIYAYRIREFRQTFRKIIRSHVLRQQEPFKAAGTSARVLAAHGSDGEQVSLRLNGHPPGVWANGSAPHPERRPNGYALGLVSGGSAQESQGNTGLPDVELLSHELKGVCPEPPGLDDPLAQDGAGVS

Turning to `COc1ccc(C2COCCO2)c2sc(NC(=O)c3ccnc(C4=CCOCC4)c3)nc12` (racemic) [Example 5, (±)-2-(3,6-Dihydro-2H-pyran-4-yl)-N-(7-[1,4]dioxan-2-yl-4-methoxy-benzothiazol-2-yl)-isonicotinamide], the Ki in test [1] is 1.45 nM. For the same molecule, the “Selectivity to hA1” value in test [2] is on record as 1421.

In the case of `COc1ccc(C2COCCO2)c2sc(NC(=O)c3ccnc(C4CCOCC4)c3)nc12` (racemic) [Example 6, (±)-N-(7-[1,4]Dioxan-2-yl-4-methoxy-benzothiazol-2-yl)-2-(tetrahydro-pyran-4-yl)-isonicotinamide], the Ki in test [1] was 1.32 nM. The “Selectivity to hA1” value in test [2] is 1582.

In the case of `COc1cc(C(=O)Nc2nc3c(OC)ccc(C4COCCO4)c3s2)ccn1` (single isomer, unassigned; (+)) [Example 14, (+)-N-(7-[1,4]Dioxan-2-yl-4-methoxy-benzothiazol-2-yl)-2-methoxy-isonicotinamide], the Ki in test [1] was 1.2 nM. Moreover, the “Selectivity to hA1” value in test [2] was 1828.

For the molecule `COc1ccc(C2COCCO2)c2sc(NC(=O)c3ccnc(C)c3)nc12` (single isomer, unassigned; (+)) [Example 15, (+)-N-(7-[1,4]Dioxan-2-yl-4-methoxy-benzothiazol-2-yl)-2-methyl-isonicotinamide], the Ki in test [1] was 0.955 nM. In addition, the “Selectivity to hA1” value in test [2] came out at 1758.

Turning to `COc1ccc(C2COCCO2)c2sc(NC(=O)c3ccc(F)cc3)nc12` (single isomer, unassigned; (+)) [Example 16, (+)-N-(7-[1,4]Dioxan-2-yl-4-methoxy-benzothiazol-2-yl)-4-fluoro-benzamide], the Ki in test [1] was 0.832 nM. The “Selectivity to hA1” value in test [2] was determined as 1005.

As for `COc1ccc(C2COCCO2)c2sc(NC(=O)c3ccnc(N4CCOCC4)c3)nc12` (single isomer, unassigned; (+)) [Example 17, (+)-N-(7-[1,4]Dioxan-2-yl-4-methoxy-benzothiazol-2-yl)-2-morpholin-4-yl-isonicotinamide], the Ki in test [1] is 0.676 nM. Moreover, the “Selectivity to hA1” value in test [2] is listed as 3874.

Turning to `COc1ccc(C2COCCO2)c2sc(NC(=O)c3ccnc(N4CCC4)c3)nc12` (single isomer, unassigned; (+)) [Example 18, (+)-2-Azetidin-1-yl-N-(7-[1,4]dioxan-2-yl-4-methoxy-benzothiazol-2-yl)-isonicotinamide], the Ki in test [1] is 0.977 nM. In test [2], the “Selectivity to hA1” value is on record as 7378.

As for `COc1ccc(C2COCCO2)c2sc(NC(=O)c3ccnc(N4CCC(O)CC4)c3)nc12` (single isomer, unassigned; (+)) [Example 29, (+)-4-Hydroxy-3,4,5,6-tetrahydro-2H-[1,2′]bipyridinyl-4′-carboxylic acid (7-[1,4]dioxan-2-yl-4-methoxy-benzothiazol-2-yl)-amide], the Ki in test [1] is 1.07 nM. Moreover, the “Selectivity to hA1” value in test [2] is listed as 2850.

As to `COc1ccc(C2COCCO2)c2sc(NC(=O)c3ccnc(N4CC(F)C4)c3)nc12` (single isomer, unassigned; (+)) [Example 30, (+)-N-(7-[1,4]Dioxan-2-yl-4-methoxy-benzothiazol-2-yl)-2-(3-fluoro-azetidin-1-yl)-isonicotinamide], the Ki in test [1] was 0.891 nM. Besides, the “Selectivity to hA1” value in test [2] is reported as 6138.

For `CCOC1CN(c2cc(C(=O)Nc3nc4c(OC)ccc(C5COCCO5)c4s3)ccn2)C1` (single isomer, unassigned; (+)) [Example 31, (+)-N-(7-[1,4]Dioxan-2-yl-4-methoxy-benzothiazol-2-yl)-2-(3-ethoxy-azetidin-1-yl)-isonicotinamide], in test [1], the Ki is 1.23 nM. The “Selectivity to hA1” value in test [2] amounted to 2718.

`COc1ccc(C2COCCO2)c2sc(NC(=O)c3ccnc(N4CC(OC)C4)c3)nc12` (single isomer, unassigned; (+)) [Example 32, (+)-N-(7-[1,4]Dioxan-2-yl-4-methoxy-benzothiazol-2-yl)-2-(3-methoxy-azetidin-1-yl)-isonicotinamide]: the Ki in test [1] was 0.646 nM. Besides, in test [2], the “Selectivity to hA1” value stood at 5404.

`COc1ccc(C(=O)Nc2nc3c(OC)ccc(C4COCCO4)c3s2)cc1` (single isomer, unassigned; (+)) [Example 33, (+)-N-(7-[1,4]Dioxan-2-yl-4-methoxy-benzothiazol-2-yl)-4-methoxy-benzamide]: the Ki in test [1] was 0.708 nM. In test [2], the “Selectivity to hA1” value stood at 1238.

On to `COc1ccc(C2COCCO2)c2sc(NC(=O)c3ccc(C)cc3)nc12` (single isomer, unassigned; (+)) [Example 34, (+)-N-(7-[1,4]Dioxan-2-yl-4-methoxy-benzothiazol-2-yl)-4-methyl-benzamide], for which, in test [1], the Ki was 0.417 nM. Also, in test [2], the “Selectivity to hA1” value stood at 4503.

On to `COc1ccc(C2COCCO2)c2sc(NC(=O)c3ccc4c(c3)OCO4)nc12` (single isomer, unassigned; (+)) [Example 36, (+)-Benzo[1,3]dioxole-5-carboxylic acid (7-[1,4]dioxan-2-yl-4-methoxy-benzothiazol-2-yl)-amide], for which the Ki in test [1] is 0.537 nM. Also, in test [2], the “Selectivity to hA1” value was 1411.

In the case of `COc1cccc(C(=O)Nc2nc3c(OC)ccc(C4COCCO4)c3s2)c1` (single isomer, unassigned; (+)) [Example 37, (+)-N-(7-[1,4]Dioxan-2-yl-4-methoxy-benzothiazol-2-yl)-3-methoxy-benzamide], the Ki in test [1] was 0.724 nM. In addition, the “Selectivity to hA1” value in test [2] is 10082.

For the molecule `COc1ccc(C2COCCO2)c2sc(NC(=O)c3cccc(F)c3)nc12` (single isomer, unassigned; (+)) [Example 39, (+)-N-(7-[1,4]Dioxan-2-yl-4-methoxy-benzothiazol-2-yl)-3-fluoro-benzamide], the Ki in test [1] was 1.07 nM. Besides, the “Selectivity to hA1” value in test [2] amounted to 674.

`COc1ccc(C2COCCO2)c2sc(NC(=O)c3ccnc(N4CC(O)C4)c3)nc12` (single isomer, unassigned; (+)) [Example 49, (+)-N-(7-[1,4]Dioxan-2-yl-4-methoxy-benzothiazol-2-yl)-2-(3-hydroxy-azetidin-1-yl)-isonicotinamide]: the Ki in test [1] was 0.851 nM. The “Selectivity to hA1” value in test [2] came to 2319.

As to `COc1ccc(C2COCCO2)c2sc(NC(=O)c3ccnc(OCCN4CCOCC4)c3)nc12` (single isomer, unassigned; (+)) [Example 52, (+)-N-(7-[1,4]Dioxan-2-yl-4-methoxy-benzothiazol-2-y)-2-(2-morpholin-4-yl-ethoxy)-isonicotinamide], in test [1], the Ki was 0.501 nM. The “Selectivity to hA1” value in test [2] was found to be 3141.

For `COc1cncc(C(=O)Nc2nc3c(OC)ccc(C4COCCO4)c3s2)c1` (single isomer, unassigned; (+)) [Example 53, (+)-N-(7-[1,4]Dioxan-2-yl-4-methoxy-benzothiazol-2-yl)-5-methoxy-nicotinamide], the Ki in test [1] was 0.832 nM. Besides, the “Selectivity to hA1” value in test [2] is on record as 8832.
